Reference: US8835653B2, “Chlorothiophene-isoxazoles as inhibitors of coagulation factors Xa and thrombin” (Sanofi, priority 2008, dated 2014)

Key:
[1] = target: T1, human coagulation factor Xa (Homo sapiens, UniProt P00742); experiment: Chromogenic assay for F Xa inhibition; type: biochemical; conditions: chromogenic substrate S-2765 200 μM; Ki from IC50 by Cheng Prusoff formula, mean of duplicates
T1 construct: purchased Haemochrom Diag; HFXa
Description: (§1) The ability of the compounds of the formulae I or Ia to inhibit thrombin or factor Xa or other enzymes like factor VIIa, plasmin, or trypsin can be assessed by determining the concentration of the compound of the formulae I or Ia that inhibits enzyme activity by 50%, i.e. the 1050 value, which was related to the inhibition constant Ki. Purified enzymes were used in chromogenic assays. The concentration of inhibitor that causes a 50% decrease in the rate of substrate hydrolysis was determined by linear regression after plotting the relative rates of hydrolysis (compared to the uninhibited control) versus the log of the concentration of the compound of formulae I or Ia. For calculating the inhibition constant Ki, the 1050 value was corrected for competition with substrate using the formula Ki=IC50/{1+(substrate concentration/Km)} wherein Km is the Michaelis-Menten constant (Chen and Prusoff, Biochem. Pharmacol. 22 (1973) 3099-3108). Measurement of F Xa and Thrombin Inhibition:
(§2) The claimed substances were tested for F Xa and thrombin inhibition with a chromogenic assay. 8 μl DMSO solution of the compound, 72 μL assay buffer (50 mM TRIS, 150 mM NaCl, 0.1% BSA, pH 7.8) and 20 μL enzyme (human coagulation factor Xa: Haemochrom Diag. Cat. Nr. HFXa, final concentration […]; human thrombin Behring: LOT.-No. 881001) were mixed and incubated for 15 minutes at room temperature in a 96 well microtiter plate. The enzyme reaction was started with 100 μL substrate (F Xa: S-2765, Chromogenix/Haemochrom Cat. Nr. 41249; thrombin: S-2366, Chromogenix/Haemochrom Cat. Nr. 41222 both in a final concentration of 200 μM). The time course of the reaction was monitored at 405 nm in a microtiter plate reader (SpectraMax plus 384; Molecular Devices Inc.) for 15 minutes.
(§3) The Ki was calculated from the mean of duplicates from a dilution series of the compound by the reader according to the Cheng Prusoff formula Ki=IC50/(1+(S/Km).
(§4) The results (inhibition constants Ki Thrombin and FXa in mikro M [μM]) for inhibition of thrombin and factor Xa are shown in Table 1.

[2] = target: T2, human thrombin (Homo sapiens, UniProt P00734); experiment: Chromogenic assay for thrombin inhibition; type: biochemical; conditions: chromogenic substrate S-2366 200 μM; Ki from IC50 by Cheng Prusoff formula, mean of duplicates
T2 construct: conversion of prothrombin to thrombin, the final enzyme in the coagulation cascade; purchased Behring LOT.-No. 881001 (a lot number; no catalogue number given)
Description: as §1, §2, §3, §4

T1 sequence (P00742 235-488 limits assumed): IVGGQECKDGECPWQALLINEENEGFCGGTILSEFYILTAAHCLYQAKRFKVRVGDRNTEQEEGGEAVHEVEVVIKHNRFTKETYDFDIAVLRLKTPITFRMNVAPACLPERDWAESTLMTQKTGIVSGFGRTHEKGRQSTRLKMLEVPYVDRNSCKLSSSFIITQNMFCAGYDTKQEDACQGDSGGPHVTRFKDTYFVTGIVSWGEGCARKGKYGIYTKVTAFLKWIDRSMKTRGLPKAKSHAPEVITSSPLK
T1 sequence (P00742 41-179 limits assumed): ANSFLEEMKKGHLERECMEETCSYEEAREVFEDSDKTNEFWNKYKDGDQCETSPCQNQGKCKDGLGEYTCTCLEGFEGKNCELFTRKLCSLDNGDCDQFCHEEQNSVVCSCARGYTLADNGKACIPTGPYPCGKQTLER

Compound | Ki [1] | Ki [2]
CCc1c(N2CCOCC2=O)cccc1S(=O)(=O)N[C@@H](Cc1cc(-c2ccc(Cl)s2)on1)C(=O)N1CCCCCC1 [Example 1, N-{(S)-2-Azepan-1-yl-1-[5-(5-chloro-thiophen-2-yl)-isoxazol-3-ylmethyl]-2-oxo-ethyl}-2-ethyl-3-(3-oxo-morpholin-4-yl)-benzenesulfonamide] | 0.013 µM | 0.00035 µM
O=C([C@H](Cc1cc(-c2ccc(Cl)s2)on1)NS(=O)(=O)c1cccc(N2CCOCC2=O)c1Cl)N1CCCCCC1 [Example 2, N-{(S)-2-Azepan-1-yl-1-[5-(5-chloro-thiophen-2-yl)-isoxazol-3-ylmethyl]-2-oxo-ethyl}-2-chloro-3-(3-oxo-morpholin-4-yl)-benzenesulfonamide] | 0.083 µM | 0.007 µM
COc1c(N2CCCCC2=O)cc(F)cc1S(=O)(=O)N[C@@H](Cc1cc(-c2ccc(Cl)s2)on1)C(=O)NCC1CC1 [Example 3, (S)-3-[5-(5-Chloro-thiophen-2-yl)-isoxazol-3-yl]-N-cyclopropylmethyl-2-[5-fluoro-2-methoxy-3-(2-oxo-piperidin-1-yl)-benzenesulfonylamino]-propionamide] | 0.904 µM | 0.268 µM
COc1c(N2CCCCC2=O)cc(F)cc1S(=O)(=O)N[C@@H](Cc1cc(-c2ccc(Cl)s2)on1)C(=O)N1CCN(C2CC2)CC1 [Example 4, N—[(S)-1-[5-(5-Chloro-thiophen-2-yl)-isoxazol-3-ylmethyl]-2-(4-cyclopropyl-piperazin-1-yl)-2-oxo-ethyl]-5-fluoro-2-methoxy-3-(2-oxo-piperidin-1-yl)-benzenesulfonamide trifluoro acetate] | 0.006 µM | 0.029 µM
O=C([C@H](Cc1cc(-c2ccc(Cl)s2)on1)NS(=O)(=O)c1cccc(N2CCCCC2=O)c1OC(F)F)N1CCN(C2CC2)CC1 [Example 5, N—[(S)-1-[5-(5-Chloro-thiophen-2-yl)-isoxazol-3-ylmethyl]-2-(4-cyclopropyl-piperazin-1-yl)-2-oxo-ethyl]-2-difluoromethoxy-3-(2-oxo-piperidin-1-yl)-benzenesulfonamide trifluoro acetate] | 0.033 µM | 0.094 µM
Cc1c(N2CCCC2=O)cccc1S(=O)(=O)N[C@@H](Cc1cc(-c2ccc(Cl)s2)on1)C(=O)N1CCN(CC(F)(F)F)CC1 [Example 6, N-{(S)-1-[5-(5-Chloro-thiophen-2-yl)-isoxazol-3-ylmethyl]-2-oxo-2-[4-(2,2,2-trifluoro-ethyl)-piperazin-1-yl]-ethyl}-2-methyl-3-(2-oxo-pyrrolidin-1-yl)-benzenesulfonamide trifluoro acetate] | 0.00072 µM | 0.014 µM
Cc1c(N2CCCC2=O)cccc1S(=O)(=O)N[C@@H](Cc1cc(-c2ccc(Cl)s2)on1)C(=O)N1CCNC(C(F)(F)F)C1 (stereo partly drawn) [Example 7, N—[(S)-1-[5-(5-Chloro-thiophen-2-yl)-isoxazol-3-ylmethyl]-2-oxo-2-(3-trifluoromethyl-piperazin-1-yl)-ethyl]-2-methyl-3-(2-oxo-pyrrolidin-1-yl)-benzenesulfonamide trifluoro acetate] | 0.00044 µM | 0.00079 µM
